Results on 12 compounds are retold here after ChEMBL document CHEMBL1201862, “PubChem BioAssay data set” (2004).

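1) Cells in 96-well plates. 2) Compound, 48 h, 5 concentrations. 3) Linear interpolation between surrounding doses. 4) Unreached endpoint = highest concentration. Here, GI50 denotes the concentration required for 50% inhibition of growth.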 Calls of active or inactive are those of the source. Cut-off read from the data, not from the text of the source: active = GI50 up to about 1.1 µM and inactive = higher.

Holding throughout (assay): NCI tumour cell line growth inhibition, 48 h
The subject of test [1] is 786-0.
In test [2] the test system is SF-539.
In test [3] the test system is SK-MEL-5.
For test [4], the system named is COLO 205.
In test [5] the test system is NCI-H226.
Test [6] has as its system KM12.
The subject of test [7] is NCI-H522.
Test [8] concerns HT-29.
In test [9] the test system is SF-295.
The subject of test [10] is OVCAR-4.
For test [11], the system named is HCT-15.
For test [12], the system named is HL-60.
Test [13] has as its system UACC-257.
Test [14] concerns TK-10.
Test [15] has as its system SNB-75.
In test [16] the test system is M14.
In test [17] the test system is MOLT-4.

Take `CC(C)(C)[C@H]1CO[C@]2(c3ccccc3)[C@@H]3C[C@@H]3C(=O)N12`: the GI50 in test [1], in test [2], in test [3], in test [4], in [5] and in test [6] was > 100 µM (inactive) throughout. Besides, the GI50 in test [7] was > 100 µM (inactive); in test [8], > 100 µM (inactive); in [9] it was > 100 µM (inactive); in test [10], > 100 µM (inactive); in test [11], above 100 µM; in test [12], > 100 µM (inactive). Also, the GI50 in test [13], in test [14], in test [15] and in test [16] was > 100 µM (inactive) throughout.

Take `COc1cc(Cl)cc(N(O)C(C)=O)c1OCc1ccccc1`: the GI50 is 61.8 µM (inactive) in test [1]; 83.4 µM (inactive) in test [2]; > 100 µM (inactive) in [3]; > 100 µM (inactive) in [4]; 65.8 µM (inactive) in [5]; > 100 µM (inactive) in test [6]. The GI50 in test [7] was 62.1 µM (inactive); in test [8] it was 64.6 µM (inactive); in test [9], 66.2 µM (inactive); in test [10], > 100 µM (inactive); in test [11], 51.4 µM; in test [12] it was 40.7 µM (inactive). Moreover, the GI50 in [13] was > 100 µM (inactive); in [14] it was 79.4 µM (inactive); in test [15], 24.8 µM (inactive); in test [17], 50.4 µM (inactive); in test [16], > 100 µM (inactive).

Take `Cc1ccc(NC(=O)C(=O)C2C(=O)NC(=O)NC2=O)c(C)c1`: the GI50 is > 100 µM (inactive) in test [1]; > 100 µM (inactive) in test [2]; > 100 µM (inactive) in [3]; 13.8 µM (inactive) in test [4]; 17.5 µM (inactive) in [5]; > 100 µM (inactive) in [6]. Further, the GI50 in test [7] was > 100 µM (inactive); in test [8] it was > 100 µM (inactive); in test [9] it was > 100 µM (inactive); in test [10] it was > 100 µM (inactive); in test [11], above 100 µM; in test [12] it was > 100 µM (inactive). In addition, the GI50 in [13], in [14], in test [15], in [17] and in test [16] was > 100 µM (inactive) in each case.

As for `Nc1ccc2ncc(NCc3ccc(F)cc3)nc2c1`, the GI50 in [1] is > 100 µM (inactive); in [2], 39.6 µM (inactive); in test [3], 48.1 µM (inactive); in test [4], > 100 µM (inactive); in test [5], 40.9 µM (inactive); in [6], > 100 µM (inactive). Besides, the GI50 in test [7] was 83.2 µM (inactive); in [8] it was > 100 µM (inactive); in [9], 56.2 µM (inactive); in test [10], 92.3 µM (inactive); in test [11] it was above 100 µM; in test [12] it was 95.9 µM (inactive). Further, the GI50 in [13] is > 100 µM (inactive); in [14], 97.3 µM (inactive); in test [15] it was 25.4 µM (inactive); in [17], 41.9 µM (inactive); in [16] it was > 100 µM (inactive).

As for `O=c1[nH]cnc2c(COCCO)c[nH]c12`, the GI50 in test [1], in test [2], in [3], in test [4], in test [5] and in test [6] was > 100 µM (inactive) each time. Further, the GI50 in test [7] is > 100 µM (inactive); in [8], > 100 µM (inactive); in [9], > 100 µM (inactive); in test [10], > 100 µM (inactive); in test [11], above 100 µM; in [12], > 100 µM (inactive). The GI50 in test [13], in test [14], in test [15], in test [17] and in test [16] was > 100 µM (inactive) in each case.

Consider `COC(=O)C(C(=O)Cc1ccccc1[N+](=O)[O-])C(=O)OC`, for which the GI50 in [1], in test [2], in [3], in test [4], in test [5] and in test [6] was > 100 µM (inactive) each time. Moreover, the GI50 in test [7] is > 100 µM (inactive); in test [8] it was > 100 µM (inactive); in [9], 42.2 µM (inactive); in test [10] it was > 100 µM (inactive); in test [11], above 100 µM; in test [12] it was 54.5 µM (inactive). Further, the GI50 in test [13], in [14], in [15], in test [17] and in test [16] was > 100 µM (inactive) in each case.

In the case of `Cc1c(N)c(C#N)c2n(C)c3ncccc3n2c1=O`, the GI50 in test [1], in test [2], in [3], in test [4], in test [5] and in test [6] was > 100 µM (inactive) in each case. Further, the GI50 was > 100 µM (inactive) in test [7]; > 100 µM (inactive) in test [8]; > 100 µM (inactive) in [9]; > 100 µM (inactive) in [10]; above 100 µM in test [11]; > 100 µM (inactive) in test [12]. Also, the GI50 in test [13], in test [14], in test [15], in [17] and in test [16] was > 100 µM (inactive) each time.

For `CCOC(=O)C1(C(=O)OCC)C(C(C)(C)C)=C(C)c2ccccc21`, the GI50 in test [1] was 15.8 µM (inactive); in test [2] it was 18.2 µM (inactive); in test [3], 9.59 µM (inactive); in [4] it was 13.3 µM (inactive); in test [5], 14.5 µM (inactive); in test [6], 12.6 µM (inactive). The GI50 was 10.1 µM (inactive) in test [7]; 10.9 µM (inactive) in [8]; 11.7 µM (inactive) in test [9]; 14.9 µM (inactive) in [10]; 13.7 µM in test [11]; 9.93 µM (inactive) in [12]. Further, the GI50 in test [13] is 12.2 µM (inactive); in [14] it was 30.1 µM (inactive); in test [15], 19.3 µM (inactive); in [17], 29.9 µM (inactive); in test [16], 16.1 µM (inactive).

Turning to `COC(=O)C1=CC2C(=O)OC1CC2C#N` (configuration not stated), the GI50 in [1], in test [2], in [3], in test [4], in [5] and in [6] was > 100 µM (inactive) throughout. For the same compound, the GI50 in test [7], in test [8], in test [9], in test [10], in test [12] and in [13] was > 100 µM (inactive) each time. Moreover, the GI50 in [14], in [15], in test [17] and in test [16] was > 100 µM (inactive) each time.

As to `CCOC(=O)c1c2ccc(/C=C/C(=O)OC)ccc-2c(C(=O)OCC)c1N`, the GI50 in test [1], in test [2], in test [3], in test [4], in [5] and in [6] was > 100 µM (inactive) throughout. In addition, the GI50 is > 100 µM (inactive) in test [7]; > 100 µM (inactive) in test [8]; > 100 µM (inactive) in [9]; > 100 µM (inactive) in [10]; above 100 µM in test [11]; > 100 µM (inactive) in [12]. Moreover, the GI50 in test [13], in test [14], in test [15], in test [17] and in test [16] was > 100 µM (inactive) each time.

Turning to `O=C1C[C@H]2CCCN2[C@@H](c2ccccc2)C1`, the GI50 in [1], in test [2], in test [3], in test [4], in test [5] and in [6] was > 100 µM (inactive) throughout. The GI50 in test [7] was > 100 µM (inactive); in test [8] it was > 100 µM (inactive); in [9] it was > 100 µM (inactive); in test [10], > 100 µM (inactive); in test [11], above 100 µM; in test [12] it was > 100 µM (inactive). The GI50 in [13], in test [14], in test [15], in test [17] and in test [16] was > 100 µM (inactive) each time.

For `O=C(/C=C/c1ccc(Cl)cc1)c1ccc(Cl)c(Cl)c1`, the GI50 in [1] is 25.5 µM (inactive); in test [2], 20 µM (inactive); in test [3], 18.1 µM (inactive); in [4], > 10 µM (inactive); in [5], 14 µM (inactive); in [6] it was 9.31 µM (inactive). Moreover, the GI50 in test [7] was 18.8 µM (inactive); in test [8], 48 µM (inactive); in [9] it was 35.2 µM (inactive); in test [10], 26.4 µM (inactive); in [11], 26 µM; in test [12], 3.44 µM (inactive). In addition, the GI50 in [13] was 29.6 µM (inactive); in test [14], > 10 µM (inactive); in test [15], 19.6 µM (inactive); in test [17], 20.5 µM (inactive); in test [16], 28 µM (inactive).
